Data as given in US20150105252A1, “SUBSTITUTED PYRAZOLES AS HERBICIDES” (E I DU PONT DE NEMOURS AND COMPANY, priority 2013, published 2015).

What was measured:
Experiment in all cases: Test C postemergence
blackgrass = assay type: in vivo, Alopecurus myosuroides
Outline: (§1)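 Postemergence values come from plants sprayed at the 1- to 4-leaf stage (2–18 cm) in peat moss–vermiculite medium; preemergence values from seeds treated in a loam–sand blend. Both evaluated visually against controls after 13–15 greenhouse days, scale 0–100.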

barnyardgrass = assay type: in vivo, Echinochloa crus-galli
Text: (§2) Seeds of plant species selected from blackgrass (Alopecurus myosuroides), ryegrass, Italian (Italian ryegrass, Lolium multiflorum), wheat (winter wheat, Triticum aestivum), galium (catchweed bedstraw, Galium aparine), corn (Zea mays), crabgrass, large (large crabgrass, Digitaria sanguinalis), foxtail, giant (giant foxtail, Setaria faberii), johnsongrass (Sorghum halepense), lambsquarters (Chenopodium album), morningglory (Ipomoea coccinea), nutsedge, yellow (yellow nutsedge, Cyperus esculentus), pigweed (redroot pigweed, Amaranthus retroflexus), ragweed (common ragweed, Ambrosia elation), soybean (Glycine max), barnyardgrass (Echinochloa crus-galli), oilseed rape (Brassica napus), waterhemp (common waterhemp, Amaranthus rudis), oat, wild (wild oat, Avena fatua), kochia (Kochia scoparia), Surinam grass (Brachiaria decumbens), foxtail, green (green foxtail, Setaria viridis), goosegrass (Eleusine indica), bromegrass, downy (downy bromegrass, Bromus tectorum), nightshade (eastern black nightshade, Solanum ptycanthum), cocklebur (common cocklebur, Xanthium strumarium), cupgrass, woolly (woolly cupgrass, Eriochloa villosa), bermudagrass (Cynodon dactylon), sunflower, (common oilseed sunflower, Helianthus annuus), Russian thistle (Salsola kali), and velvetleaf (Abutilon theophrasti) were planted into a blend of loam soil and sand and treated preemergence with test chemicals formulated in a non-phytotoxic solvent mixture which included a surfactant.
(§3) At the same time, plants selected from these crop and weed species and also chickweed (common chickweed, Stellaria media), canarygrass (littleseed canarygrass, Phalaris minor), and deadnettle (henbit deadnettle, Lamium amplexicaule), were planted in pots containing Redi-Earth® planting medium (Scotts Company, 14111 Scottslawn Road, Marysville, Ohio 43041) comprising spaghnum peat moss, vermiculite, wetting agent and starter nutrients and treated with postemergence applications of test chemicals formulated in the same manner. Plants ranged in height from 2 to 18 cm (1- to 4-leaf stage) for postemergence treatments. Treated plants and controls were maintained in a greenhouse for 13 to 15 days, after which time all species were compared to controls and visually evaluated. Plant response ratings, summarized in Table C, are based on a scale of 0 to 100 where 0 is no effect and 100 is complete control. A dash (-) response means no test result.

chickweed = assay type: in vivo, Stellaria media
Text: as §2, §3

galium = assay type: in vivo, Galium aparine
Outline: as §1

foxtail, giant = assay type: in vivo, Setaria faberii
Text: as §2, §3

soybean = assay type: in vivo, Glycine max; details: postemergence
Text: as §2, §3

waterhemp = assay type: in vivo, Amaranthus rudis; details: postemergence, 250 g ai/ha; scale 0 to 100 (0 no effect, 100 complete control)
Text: as §2, §3

morningglory = assay type: in vivo, Ipomoea coccinea
Text: as §2, §3

ragweed = assay type: in vivo, Ambrosia elation; details: postemergence
Outline: as §1

wheat = assay type: in vivo, Triticum aestivum; details: postemergence, 250 g ai/ha; scale 0 to 100 (0 no effect, 100 complete control)
Text: as §2, §3

crabgrass, large = assay type: in vivo, Digitaria sanguinalis
Text: as §2, §3

corn = assay type: in vivo, Zea mays
Text: as §2, §3

ryegrass, Italian = assay type: in vivo, Lolium multiflorum; details: postemergence
Outline: as §1

[1] = Postemergence, 31 g ai/ha, visually evaluated after 13 to 15 days
[2] = postemergence, 62 g ai/ha, scale 0 to 100
[3] = postemergence, 250 g ai/ha, scale 0 to 100 (0 no effect, 100 complete control)
[4] = postemergence, 125 g ai/ha, scale 0 to 100, 0 no effect, 100 complete control
[5] = 250 g ai/ha, scale 0 to 100 (0 no effect, 100 complete control)
[6] = 125 g ai/ha, scale 0 to 100, 0 no effect, 100 complete control

In the case of `CCNC(=O)c1cc(CC)n(Cc2ccnc(C(F)(F)F)c2)n1` [Compound 196], the “Plant response rating (scale of 0 to 100 where 0 is no effect and 100 is complete control), Blackgrass” value (blackgrass; [1]) is reported as 20, the “Blackgrass plant response rating” value (blackgrass; [2]) is reported as 15 and the “Plant response rating, Blackgrass” value (blackgrass; [3]) is reported as 15. For the same compound, the “Plant response rating, Blackgrass” value (blackgrass; [4]) was 5, the “Plant response rating (scale of 0 to 100 where 0 is no effect and 100 is complete control), Barnyardgrass” value (barnyardgrass; [1]) was 5 and the “Barnyardgrass plant response rating” value (barnyardgrass; [2]) was 5. The “Plant response rating, Barnyardgrass” value (barnyardgrass; [3]) was 35, the “Plant response rating, Barnyardgrass” value (barnyardgrass; [4]) was 20 and the “Plant response rating (scale of 0 to 100 where 0 is no effect and 100 is complete control), Chickweed” value (chickweed; [1]) was 50. For the same compound, the “Chickweed plant response rating” value (chickweed; [2]) was 60, the “Plant response rating, Chickweed” value (chickweed; [3]) was 80 and the “Plant response rating, Chickweed” value (chickweed; [4]) was 80. For the same compound, the “Plant response rating (scale of 0 to 100 where 0 is no effect and 100 is complete control), Galium” value (galium; [1]) was 40, the “Galium plant response rating” value (galium; [2]) was 55 and the “Plant response rating, Galium” value (galium; [3]) was 90. The “Plant response rating, Galium” value (galium; [4]) was 80, the “Plant response rating (scale of 0 to 100 where 0 is no effect and 100 is complete control), Foxtail, Giant” value (foxtail, giant; [1]) was 5 and the “Foxtail, Giant plant response rating” value (foxtail, giant; [2]) was 25. The “Plant response rating, Foxtail, Giant” value (foxtail, giant; [3]) was 20, the “Plant response rating, Foxtail, Giant” value (foxtail, giant; [4]) was 20 and the “Plant response rating, Soybean” value (soybean; [5]) was 95. The “Soybean plant response rating” value (soybean; [6]) was 80, the “Plant response rating, Waterhemp” value (waterhemp) was 70 and the “Plant response rating (scale of 0 to 100 where 0 is no effect and 100 is complete control), Morningglory” value (morningglory; [1]) was 40. The “Morningglory plant response rating” value (morningglory; [2]) was 80, the “Plant response rating, Morningglory” value (morningglory; [3]) was 75 and the “Plant response rating, Morningglory” value (morningglory; [4]) was 55. The “Plant response rating, Ragweed” value (ragweed; [5]) was 40, the “Plant response rating, Ragweed” value (ragweed; [6]) was 15 and the “Plant response rating, Wheat” value (wheat) was 5. For the same compound, the “Plant response rating (scale of 0 to 100 where 0 is no effect and 100 is complete control), Crabgrass, Large” value (crabgrass, large; [1]) was 5, the “Crabgrass, Large plant response rating” value (crabgrass, large; [2]) was 5 and the “Plant response rating, Crabgrass, Large” value (crabgrass, large; [3]) was 25. The “Plant response rating, Crabgrass, Large” value (crabgrass, large; [4]) was 10, the “Plant response rating (scale of 0 to 100 where 0 is no effect and 100 is complete control), Corn” value (corn; [1]) was 5 and the “Corn plant response rating” value (corn; [2]) was 5. For the same compound, the “Plant response rating, Corn” value (corn; [3]) was 15, the “Plant response rating, Corn” value (corn; [4]) was 5 and the “Plant response rating, Ryegrass, Italian” value (ryegrass, Italian; [5]) was 5. The “Plant response rating, Ryegrass, Italian” value (ryegrass, Italian; [6]) was 5.
